In patent US20250249098A1, “CRYOPRESERVATION OF NK CELL PRODUCTS FOR OFF-THE-SHELF IMMUNOTHERAPY” (BOARD OF REGENTS, THE UNIVERSITY OF TEXAS SYSTEM, priority 2022, published 2025):

Columns and labels:
[1] = test system: A375 cells and/or Saos-2 cells; experiment: xCELLigence impedance assay, thawed NYESO-TCR-NK cells; conditions: pre-cryopreservation treatment at 1 micromolar; E:T 2:1; vs no pre-treatment
Protocol: As shown in FIGS. 17A-17C, addition of various tyrosine kinase inhibitors prior to freezing enhanced the antitumor cytotoxicity of TCR-NK cells post-thaw against solid cancer, as determined by xCELLigence impedance assays. The melanoma cell line (A375) (FIG. 17A) and osteosarcoma cell line (Saos-2) (FIG. 17B), were grown in 96 well RTCA E-Plates overnight. The next day, frozen NYESO targeting TCR-NK cells that were not treated or were treated pre-cryopreservation with a tyrosine kinase inhibitor (Dasatinib, Bosutinib, Nilotinib, or Saracatinib; at a final concentration of 1 micromolar) were thawed and added at 2:1 effector to target (E:T) ratio. The cancer cell growth was measured continuously over time (X axis) by the xCELLigence device and represented as normalized cell index (Y axis).

U266 cells = experiment: Chromium release assay, thawed NYESO-TCR-NK cells; format: cell-based; conditions: pre-cryopreservation treatment; E:T 2:1, 1:1, 0.5:1, 0.25:1; vs no pre-treatment
Protocol: After four hours, chromium release was measured, which corresponded to cancer cell death.

CAR-NK cells [2] = experiment: Post-thaw viability of CAR-NK cells by flow cytometry (Annexin V / cell death marker); format: cell-based, human
Protocol: (§1) CAR-NK cells were isolated, pre-activated, expanded, and treated with Dasatinib for 24, 48, or 72 hours prior to cryopreservation as described in Example 1 (or not treated with Dasatinib as control). Immediately prior to cryopreservation, CAR-NK cells were washed to remove the deactivating agent.

CAR-NK cells [3] = experiment: Post-thaw CAR expression of CAR-NK cells by flow cytometry; format: cell-based, human
Protocol: as §1

[4] = test system: SKOV3 cells and/or UMRC3 cells; experiment: xCELLigence impedance assay, thawed iC9/CD27 CAR/IL-15-NK cells; format: cell-based; conditions: pre-cryopreservation treatment at 1 micromolar; E:T 2:1; vs no pre-treatment
Protocol: The ovarian cancer cell line (SKOV3) (FIG. 16A) and renal cell carcinoma cell line (UMRC3) (FIG. 16B), were grown in 96 well RTCA E-Plates overnight.

[5] = 24 h treatment prior to cryopreservation
[6] = 48 h treatment prior to cryopreservation

| SMILES | cytotoxicity of thawed TCR-NK cells (normalized cell index) [1] | cytotoxicity of thawed TCR-NK cells (chromium release after four hours) (U266 cells) | living cell percentage (CAR-NK cells [2]; [5]) | living cell percentage (CAR-NK cells [2]; [6]) | living cell percentage (CAR-NK cells [2]; 72 h treatment prior to cryopreservation) | CAR Mean Fluorescence Intensity (MFI) (CAR-NK cells [3]; [5]) | percentage of cells that are CAR positive (CAR-NK cells [3]; [5]) | CAR Mean Fluorescence Intensity (MFI) (CAR-NK cells [3]; [6]) | percentage of cells that are CAR positive (CAR-NK cells [3]; [6]) | cytotoxicity of thawed CAR-NK cells (normalized cell index) [4] |
| --- | --- | --- | --- | --- | --- | --- | --- | --- | --- | --- |
| COc1cc(Nc2c(C#N)cnc3cc(OCCCN4CCN(C)CC4)c(OC)cc23)c(Cl)cc1Cl [Bosutinib] | increased cytotoxicity |  |  |  |  |  |  |  |  |  |
| Cc1nc(Nc2ncc(C(=O)Nc3c(C)cccc3Cl)s2)cc(N2CCN(CCO)CC2)n1 [Dasatinib] | increased cytotoxicity | increased cytotoxicity | 61.7% | 68.8% | 70.9% | 7987 | 64.9% | 4620 | 55.4% | increased cytotoxicity |
| Cc1cn(-c2cc(NC(=O)c3ccc(C)c(Nc4nccc(-c5cccnc5)n4)c3)cc(C(F)(F)F)c2)cn1 [Nilotinib] | increased cytotoxicity |  |  |  |  |  |  |  |  | increased cytotoxicity |
| CN1CCN(CCOc2cc(OC3CCOCC3)c3c(Nc4c(Cl)ccc5c4OCO5)ncnc3c2)CC1 [Saracatinib] |  |  |  |  |  |  |  |  |  | increased cytotoxicity |
